From patent US20250213555A1, “SUBSTITUTED TETRAHYDROFURAN ANALOGS AS MODULATORS OF SODIUM CHANNELS” (VERTEX PHARMACEUTICALS INCORPORATED, priority 2021, published 2025)

Biological target: human Nav 1.8 (Homo sapiens, UniProt Q9Y5Y9)
Assay: E-VIPR assay detecting and measuring Nav inhibition properties
Format: cell-based
Conditions: HEK cells expressing a truncated form of human Nav 1.8; compound numbers without "*" (not marked as run in the presence of human serum); read-out: measured IC50 value in the E-VIPR Assay
Outline: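 Nav inhibition was read by E-VIPR: cells were electrically stimulated while coumarin/oxonol FRET emissions were recorded. Cells were HEK expressing a truncated human Nav 1.8 and co-transduced with KIR2.1, and were assayed in 25% final human serum.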

Chain of human Nav 1.8 (Q9Y5Y9 126-399 limits assumed): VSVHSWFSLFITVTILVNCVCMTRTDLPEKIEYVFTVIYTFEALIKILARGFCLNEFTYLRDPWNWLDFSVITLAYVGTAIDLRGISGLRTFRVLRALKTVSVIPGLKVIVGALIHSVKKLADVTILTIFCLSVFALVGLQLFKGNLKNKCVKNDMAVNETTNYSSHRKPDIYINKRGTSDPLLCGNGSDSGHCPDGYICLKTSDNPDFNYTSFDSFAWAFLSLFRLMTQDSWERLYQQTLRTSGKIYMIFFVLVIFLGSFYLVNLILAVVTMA
Chain of human Nav 1.8 (Q9Y5Y9 660-890 limits assumed): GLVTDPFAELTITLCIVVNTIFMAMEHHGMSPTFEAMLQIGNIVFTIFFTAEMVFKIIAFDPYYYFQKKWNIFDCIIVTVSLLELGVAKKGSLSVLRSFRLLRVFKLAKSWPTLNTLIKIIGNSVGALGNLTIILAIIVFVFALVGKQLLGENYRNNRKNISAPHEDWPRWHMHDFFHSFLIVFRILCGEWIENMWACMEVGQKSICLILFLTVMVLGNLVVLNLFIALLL
Chain of human Nav 1.8 (Q9Y5Y9 1148-1722 limits assumed): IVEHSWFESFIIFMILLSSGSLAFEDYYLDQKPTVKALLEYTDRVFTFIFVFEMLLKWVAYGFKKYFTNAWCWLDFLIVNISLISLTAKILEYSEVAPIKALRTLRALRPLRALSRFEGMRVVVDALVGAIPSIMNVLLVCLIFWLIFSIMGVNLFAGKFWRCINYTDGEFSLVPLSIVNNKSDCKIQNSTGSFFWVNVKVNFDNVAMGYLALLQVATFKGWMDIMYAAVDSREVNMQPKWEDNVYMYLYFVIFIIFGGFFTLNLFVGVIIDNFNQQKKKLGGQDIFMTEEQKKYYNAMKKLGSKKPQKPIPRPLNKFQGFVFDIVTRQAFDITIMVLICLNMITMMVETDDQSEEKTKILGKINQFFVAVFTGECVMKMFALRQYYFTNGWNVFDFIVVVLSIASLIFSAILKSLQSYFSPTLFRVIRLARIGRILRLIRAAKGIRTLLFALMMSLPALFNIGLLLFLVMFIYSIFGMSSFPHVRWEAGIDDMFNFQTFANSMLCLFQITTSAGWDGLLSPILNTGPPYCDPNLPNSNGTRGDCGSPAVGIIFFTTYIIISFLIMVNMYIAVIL

`COc1c([C@H]2[C@H](C(=O)Nc3ccnc(C(=O)N4C[C@H]5C[C@@H]4CN5C)c3)O[C@@](C)(C(F)(F)F)[C@H]2C)ccc(F)c1F` [Compound 279, (2R,3S,4S,5R)-3-(3,4-difluoro-2-methoxyphenyl)-4,5-dimethyl-N-(2-((1R,4R)-5-methyl-2,5-diazabicyclo[2.2.1]heptane-2-carbonyl)pyridin-4-yl)-5-(trifluoromethyl)tetrahydrofuran-2-carboxamide] was tested, and the IC50 was 10 to 100 nM.

With `CO[C@@H]1CCN(CCOc2c([C@H]3[C@H](C(=O)Nc4ccnc(C(N)=O)c4)O[C@@](C)(C(F)(F)F)[C@H]3C)ccc(F)c2F)C1` [Compound 128, 4-((2R,3S,4S,5R)-3-(3,4-difluoro-2-(2-((R)-3-methoxypyrrolidin-1-yl)ethoxy)phenyl)-4,5-dimethyl-5-(trifluoromethyl)tetrahydrofuran-2-carboxamido)picolinamide] the IC50 was 10 to 100 nM.

Compound `CC(C)C(COc1c([C@H]2[C@H](C(=O)Nc3ccnc(C(N)=O)c3)O[C@@](C)(C(F)(F)F)[C@H]2C)ccc(F)c1F)=NO` [Compound 186, 4-((2R,3S,4S,5R)-3-(3,4-difluoro-2-(2-(hydroxyimino)-3-methylbutoxy)phenyl)-4,5-dimethyl-5-(trifluoromethyl)tetrahydrofuran-2-carboxamido)picolinamide] has an IC50 of less than 10 nM.

`COc1c([C@@H]2[C@@H](C)[C@@](C)(C(F)(F)F)O[C@H]2C(=O)Nc2ccnc(C(N)=O)c2)ccc(OCC2CC2)c1F` (single isomer, unassigned) [Compound 142] showed an IC50 of no less than 1000 nM.

`COc1c([C@H]2[C@H](C(=O)Nc3ccnc(C(=O)N4CCO[C@H]5CN(C)C[C@H]54)c3)O[C@@](C)(C(F)(F)F)[C@H]2C)ccc(F)c1F` [Compound 282, (2R,3S,4S,5R)-3-(3,4-difluoro-2-methoxyphenyl)-4,5-dimethyl-N-(2-((4aR,7aS)-6-methyloctahydropyrrolo[3,4-b][1,4]oxazine-4-carbonyl)pyridin-4-yl)-5-(trifluoromethyl)tetrahydrofuran-2-carboxamide] was tested, and the IC50 was less than 10 nM.

With `C[C@H]1[C@@H](c2ccc(F)c(F)c2OCC2(CO)COC2)[C@H](C(=O)Nc2ccnc(C(N)=O)c2)O[C@@]1(C)C(F)(F)F` [Compound 94, 4-((2R,3S,4S,5R)-3-(3,4-difluoro-2-((3-(hydroxymethyl)oxetan-3-yl)methoxy)phenyl)-4,5-dimethyl-5-(trifluoromethyl)tetrahydrofuran-2-carboxamido)picolinamide] the IC50 was 100 to 1000 nM.

With `COc1c([C@H]2[C@H](C(=O)Nc3ccnc(C(=O)N[C@H]4CN(C)C[C@@H]4OC)c3)O[C@@](C)(C(F)(F)F)[C@H]2C)ccc(F)c1F` [Compound 281, 4-((2R,3S,4S,5R)-3-(3,4-difluoro-2-methoxyphenyl)-4,5-dimethyl-5-(trifluoromethyl)tetrahydrofuran-2-carboxamido)-N-((3S,4S)-4-methoxy-1-methylpyrrolidin-3-yl)picolinamide] the IC50 was 10 to 100 nM.

`COCCOc1c([C@H]2[C@H](C(=O)Nc3ccnc(C(N)=O)n3)O[C@@](C)(C(F)(F)F)[C@H]2C)ccc(F)c1C` (single isomer, unassigned) [Compound 3] showed an IC50 of less than 10 nM.

For `C[C@H]1[C@@H](c2ccc(F)c(F)c2OC2CCC(O)C2)[C@H](C(=O)Nc2ccnc(C(N)=O)c2)O[C@@]1(C)C(F)(F)F` (stereo partly drawn) [Compound 175, 4-((2R,3S,4S,5R)-3-(3,4-difluoro-2-((3-hydroxycyclopentyl)oxy)phenyl)-4,5-dimethyl-5-(trifluoromethyl)tetrahydrofuran-2-carboxamido)picolinamide], the IC50 was less than 10 nM.

Compound `C=C(/C=C/Oc1c([C@H]2[C@H](C(=O)Nc3ccnc(C(N)=O)c3)O[C@@](C)(C(F)(F)F)[C@H]2C)ccc(F)c1F)C(F)(F)F` [Compound 172, 4-((2R,3S,4S,5R)-3-(3,4-difluoro-2-(((E)-3-(trifluoromethyl)buta-1,3-dien-1-yl)oxy)phenyl)-4,5-dimethyl-5-(trifluoromethyl)tetrahydrofuran-2-carboxamido)picolinamide] has an IC50 of 10 to 100 nM.

`C[C@H]1[C@@H](c2ccc(F)c(F)c2OC/C(=N\O)C(C)(C)C)[C@H](C(=O)Nc2ccnc(C(N)=O)c2)O[C@@]1(C)C(F)(F)F` [Compound 189, 4-((2R,3S,4S,5R)-3-(3,4-difluoro-2-((Z)-2-(hydroxyimino)-3,3-dimethylbutoxy)phenyl)-4,5-dimethyl-5-(trifluoromethyl)tetrahydrofuran-2-carboxamido)picolinamide] showed an IC50 of less than 10 nM.

For `COc1c([C@H]2[C@H](C(=O)Nc3ccnc(C(=O)N4CC5(CNC5)C4)c3)O[C@@](C)(C(F)(F)F)[C@H]2C)ccc(F)c1F` [Compound 228, (2R,3S,4S,5R)-N-(2-(2,6-diazaspiro[3.3]heptane-2-carbonyl)pyridin-4-yl)-3-(3,4-difluoro-2-methoxyphenyl)-4,5-dimethyl-5-(trifluoromethyl)tetrahydrofuran-2-carboxamide], the IC50 was less than 10 nM.

`COCC(COc1c([C@H]2[C@H](C(=O)Nc3ccnc(C(N)=O)c3)O[C@@](C)(C(F)(F)F)[C@H]2C)ccc(F)c1F)OC` (stereo partly drawn) [Compound 78, 4-((2R,3S,4S,5R)-3-(2-(2,3-dimethoxypropoxy)-3,4-difluorophenyl)-4,5-dimethyl-5-(trifluoromethyl)tetrahydrofuran-2-carboxamido)picolinamide] was tested, and the IC50 was less than 10 nM.
